According to article PMC8518391, “Synthesis and Biological Evaluation of Dantrolene‐Like Hydrazide and Hydrazone Analogues as Multitarget Agents for Neurodegenerative Diseases” (Chemmedchem, 2021):

What was measured:
hMAO A = target: T1, hMAO A (Homo sapiens, UniProt P21397); assay: biochemical; conditions: for inhibition at 10 µM: read-out: % inhibition at 10 μM hMAO A
T1 construct: purchased Sigma Aldrich
T1 sequence (P21397 1-527): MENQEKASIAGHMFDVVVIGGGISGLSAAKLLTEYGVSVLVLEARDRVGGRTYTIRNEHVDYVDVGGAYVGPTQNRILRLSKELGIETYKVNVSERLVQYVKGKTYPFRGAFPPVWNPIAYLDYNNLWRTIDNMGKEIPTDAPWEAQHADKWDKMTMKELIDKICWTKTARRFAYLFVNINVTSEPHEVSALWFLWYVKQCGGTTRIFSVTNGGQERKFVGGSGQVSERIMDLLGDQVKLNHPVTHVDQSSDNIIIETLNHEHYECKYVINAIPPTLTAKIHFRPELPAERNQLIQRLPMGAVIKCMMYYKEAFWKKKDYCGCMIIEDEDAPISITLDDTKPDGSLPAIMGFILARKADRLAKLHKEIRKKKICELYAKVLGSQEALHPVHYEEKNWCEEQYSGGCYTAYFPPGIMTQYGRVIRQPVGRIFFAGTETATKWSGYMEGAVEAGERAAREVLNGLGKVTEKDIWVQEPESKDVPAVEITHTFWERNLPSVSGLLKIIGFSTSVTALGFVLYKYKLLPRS
Description: (§1) Readings were made with Infinite M1000 Pro plate reader (Tecan, Cernusco s.N., Italy) and statistical regressions with Prism software (GraphPad Prism version 5.00 for Windows, GraphPad Software, San Diego, CA, USA).

hAChE = target: T2, hAChE (Homo sapiens, UniProt P22303); assay: biochemical; conditions: for inhibition at 10 µM: read-out: % inhibition at 10 μM hAChE
T2 construct: purchased Sigma Aldrich
Description: as §1

hMAO B = target: T3, hMAO B (Homo sapiens, UniProt P27338); assay: biochemical; assay type: biochemical; conditions: for inhibition at 10 µM: read-out: % inhibition at 10 μM hMAO B
T3 construct: purchased Sigma Aldrich
T3 sequence (P27338 1-520): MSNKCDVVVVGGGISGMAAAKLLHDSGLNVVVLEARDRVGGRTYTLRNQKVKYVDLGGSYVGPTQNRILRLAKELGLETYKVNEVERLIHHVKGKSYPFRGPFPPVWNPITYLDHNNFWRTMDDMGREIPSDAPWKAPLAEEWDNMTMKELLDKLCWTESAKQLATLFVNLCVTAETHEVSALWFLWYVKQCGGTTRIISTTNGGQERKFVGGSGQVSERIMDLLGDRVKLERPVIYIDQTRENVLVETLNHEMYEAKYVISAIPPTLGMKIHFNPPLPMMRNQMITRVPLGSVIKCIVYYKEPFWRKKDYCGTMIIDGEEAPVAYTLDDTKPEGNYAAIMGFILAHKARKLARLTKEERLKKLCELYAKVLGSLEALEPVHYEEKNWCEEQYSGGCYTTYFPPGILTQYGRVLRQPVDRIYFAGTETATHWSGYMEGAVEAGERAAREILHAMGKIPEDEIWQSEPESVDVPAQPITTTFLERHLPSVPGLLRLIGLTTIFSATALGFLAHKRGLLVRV

[1] = RP-HPLC lipophilicity index log k’; assay type: physicochemical; conditions: MeOH/phosphate buffer pH 7.4; methanol/PBS 60:40 v/v
Description: To investigate a possible correlation between MAO inhibitory potency and lipophilicity,[7] we calculated log P with three different programs (ChemDraw 15.0; ALOG PS 2.1; ChemSketch 2017, see Table S1 in Supporting Information) and compared the calculated values with experimental lipophilicity indexes as assessed by reversed‐phase (RP) HPLC in isocratic conditions for the majority of compounds. The log of capacity factors (log k’) measured by RP‐HPLC using a mixture of methanol/PBS (60 : 40, v/v) as the mobile phase are reported in Tables 1 and 2, along with Clog P values calculated with ChemDraw. These calculated lipophilicity descriptors correlated with the experimental log k’ values (n=13, r ^2=0.901) better than the other log Ps calculated by ALOG PS and ChemSketch computational tools (r ^2 equal 0.705 and 0.568, respectively). As shown by the scatter plots in Figure 4 and Figure S1 in Supporting Information, there is no evident correlation trend between MAO A/B inhibition data and lipophilicity calculated by the expert system implemented in ChemDraw for compounds achieving finite IC50 values.
Log k’ values (k’=(tr‐t0)/t0) and purity determinations were carried out using a Phenomenex Gemini C18 4.6×150 mm, with 3 μm size particles, built on a Waters double pump HPLC system in isocratic conditions. Injection volumes were 10 μL, flow rate was 0.5 mL/min, and detection was performed with UV (λ=254 and 370 nm). Samples were prepared by dissolving 0.1 mg/mL of the solute in 10 % v/v DMSO and 90 % v/v methanol. Retention times (tr) were measured at least from three separate injections, and dead time (t0) was the retention time of deuterated methanol. The mobile phase was filtered through a Supelco Nylon‐66 membrane 0.45 μm (Merck Life Science Srl, Milan, Italy) before use. For each reference compound, the average tr of three consecutive injections of 10 μL of sample was used to calculate the log k’ values. The eluent consisted of five different mixtures of methanol and PBS buffer 10 mM at pH 7.4, with methanol/buffer ratios ranging from 80 : 20 to 60 : 40 v/v.

[2] = Hydrolytic stability in buffered solution (PBS pH 7.4, 37 °C); assay type: physicochemical; conditions: 20 μM in 10 mM PBS pH 7.4, 37 °C, 6 h incubation
Procedure: The hydrolytic stability of some representative imino/hydrazone/hydrazide derivatives was determined in buffered aqueous media. […]. […]. The hydrolytic degradation of 9 in its starting reagents was confirmed by the comparison of the chromatograms of 9 and 2‐chloro‐4‐hydroxyaniline, obtained in the same chromatographic conditions (Figure 6B).
Stability studies in buffered solution were performed following an already described procedure,[23] on a Phenomenex C18 column (150×4.6 mm i.d., 3 μm particle size; Phenomenex, Castel Maggiore, Italy) using a mobile phase consisting of a mixture of methanol‐water (75 : 25 v/v, with aqueous formic acid 0.1 %). The used flow rate was 0.500 mL/min while the injection volume was 20 μL. Wavelength of UV‐Vis detector was adjusted at 254 nm. The chemical stability was evaluated in a phosphate buffer solution pH 7.4 (10 mM HPO4 ^2−/H2PO4 ^−; 100 mM NaCl) at 37 °C. Five different concentrations from 0.5 μM to 20 μM were studied in a 2 h time range (data not shown). Each concentration (0.5, 1, 5, 10 and 20 μM) was tested in triplicate starting from 3 different stocks solution (1 mM) prepared separately. The time range was extended to 6 h only for the samples at 20 μM concentration (Figure 6a).

T2 sequence (P22303 32-614): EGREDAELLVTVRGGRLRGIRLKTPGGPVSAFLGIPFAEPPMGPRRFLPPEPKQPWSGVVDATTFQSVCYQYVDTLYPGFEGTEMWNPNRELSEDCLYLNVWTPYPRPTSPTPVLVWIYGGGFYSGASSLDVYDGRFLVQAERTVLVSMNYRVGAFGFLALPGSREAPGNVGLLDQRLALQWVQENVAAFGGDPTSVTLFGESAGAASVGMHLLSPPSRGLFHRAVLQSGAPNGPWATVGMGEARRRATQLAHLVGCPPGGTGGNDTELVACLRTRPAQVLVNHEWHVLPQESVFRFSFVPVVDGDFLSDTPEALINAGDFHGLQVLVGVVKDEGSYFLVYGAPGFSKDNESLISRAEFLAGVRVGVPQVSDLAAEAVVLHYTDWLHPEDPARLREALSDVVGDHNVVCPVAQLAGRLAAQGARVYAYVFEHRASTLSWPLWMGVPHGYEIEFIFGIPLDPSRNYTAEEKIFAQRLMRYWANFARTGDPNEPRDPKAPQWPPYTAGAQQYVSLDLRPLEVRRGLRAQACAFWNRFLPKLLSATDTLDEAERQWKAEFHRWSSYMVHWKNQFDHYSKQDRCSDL

SMILES	inhibition at 10 µM (hMAO A)	inhibition at 10 µM (hAChE)	inhibition at 10 µM (hMAO B)	IC50 (hAChE)	log k’ (logarithm of capacity factor, RP-HPLC) [1]	IC50 (hMAO B)	IC50 (hMAO A)	hydrolytic stability [2]	% inhibition at 10 μM hMAO B (hMAO B; 10 μM)
O=C(Cc1ccccc1)NN=Cc1ccco1 [Compound 17, N ′‐((furan‐2‐yl)methylidene)‐2‐phenylacetohydrazide]	22%	52%	22%	–	–	–	–	–	–
COc1cccc(/C=N/NC(=O)c2ccncc2)c1 [Compound 19]	19%	–	–	11.2 ± 1.6 µM	0.129	12.2 ± 1.5 µM	–	–	–
COc1cc(C=NNC(=O)c2cccs2)ccc1-c1ccc(C#N)cc1 [Compound 13, N ′‐[(4′‐cyano‐2‐methoxy[1,1′‐biphenyl]‐4‐yl)methylidene]thiophene‐2‐carbohydrazide]	29%	35%	–	–	0.549	2.32 ± 0.43 µM	–	–	–
CN1CCN(N=Cc2ccc(-c3ccc([N+](=O)[O-])cc3)o2)CC1 [Compound 3, N ‐(4‐methylpiperazin‐1‐yl)‐1‐(5‐(4‐nitrophenyl)furan‐2‐yl)methanimine]	–	44%	–	–	0.752	3.15 ± 0.03 µM	5.61 ± 1.11 µM	substantial stability	–
NS(=O)(=O)c1ccc(NN=Cc2ccco2)cc1 [Compound 18, 4‐(‐2‐((furan‐2‐yl)methylidene)hydrazinyl)benzene‐1‐sulfonamide]	25%	27%	21%	–	–	–	–	–	–
COc1cccc(C=NNc2ccc(S(N)(=O)=O)cc2)c1 [Compound 20, 4‐(2‐((3‐methoxyphenyl)methylidene)hydrazinyl)benzene‐1‐sulfonamide]	42%	–	–	10.2 ± 1.6 µM	0.307	0.81 ± 0.04 µM	–	–	–
COc1ccc(N/N=C/c2ccc(-c3ccc(C#N)cc3)o2)cc1 [Compound 10]	47%	–	29%	–	–	–	–	–	–
N#Cc1ccc(-c2ccc(/C=N/NC(=O)c3ccncc3)o2)cc1 [Compound 5, N ′‐((5‐(4‐cyanophenyl)furan‐yl)methylene)isonicotinohydrazide]	–	27%	–	–	0.312	12.6 ± 0.9 µM	6.62 ± 0.71 µM	–	–
COc1cc(C=NN2CC(=O)NC2=O)cc(OC)c1OC [Compound 21, 1‐(((3,4,5‐trimethoxyphenyl)methylidene)amino)imidazolidine‐2,4‐dione]	8%	28%	18%	–	–	–	–	–	–
CC(=O)NN=Cc1ccc(-c2ccc(C#N)cc2)o1 [Compound 6, N ′‐((5‐(4‐cyanophenyl)furan‐2‐yl)methylene)acetohydrazide]	–	38%	–	–	0.236	2.65 ± 0.11 µM	4.25 ± 0.45 µM	–	–
N#Cc1ccc(-c2ccc(/C=N/N3CC(=O)NC3=O)o2)cc1 [Compound 7]	40%	28%	50%	–	–	–	–	–	–
O=C(N/N=C/c1ccc(-c2ccc([N+](=O)[O-])cc2)o1)c1ccncc1 [Compound 2]	–	30%	–	–	0.522	3.56 ± 0.36 µM	7.89 ± 1.1 µM	–	–
CN1CCN(N=Cc2ccco2)CC1 [Compound 16, 1‐(Furan‐2‐yl)‐N‐(4‐methylpiperazin‐1‐yl)methanimine]	18%	21%	13%	–	–	–	–	–	–
N#Cc1ccc(-c2ccc(C=NNC(=O)Cc3ccccc3)o2)cc1 [Compound 8, N ′‐((5‐(4‐cyanophenyl)furan‐2‐yl)methylene)‐2‐phenyl‐acetohydrazide]	–	16%	–	–	0.803	3.61 ± 0.04 µM	5.51 ± 0.54 µM	–	–
O=C(N/N=C/c1ccco1)c1cccs1 [Compound 15]	16%	–	13%	7.18 ± 0.07 µM	−0.010	–	–	–	–
O=C(NN=Cc1ccc(-c2ccc([N+](=O)[O-])cc2)o1)c1cccs1 [Compound 1, N ′‐((5‐(4‐nitrophenyl)furan‐2‐yl)methylene)thiophene‐2‐carbohydrazide]	33%	40%	–	–	0.947	3.67 ± 0.92 µM	–	–	–
CS(=O)(=O)c1ccc(NN=Cc2ccc(-c3ccc(C#N)cc3)o2)cc1 [Compound 11, 4‐(5‐((2‐(4‐(methylsulfonyl)phenyl)hydrazono)methyl)furan‐2‐yl)benzonitrile]	11%	39%	28%	–	–	–	–	–	–
N#Cc1ccc(-c2ccc(C=NNC(=O)c3cccs3)o2)cc1 [Compound 4, N ′‐((5‐(4‐cyanophenyl)furan‐2‐yl)methylene)thiophene‐2‐carbohydrazide]	–	51%	–	–	–	2.63 ± 0.42 µM	1.46 ± 0.21 µM	substantial stability	–
N#Cc1ccc(-c2ccc(/C=N/Nc3ccc(S(N)(=O)=O)cc3)o2)cc1 [Compound 12]	–	–	28%	1.67 ± 0.19 µM	0.466	–	10 ± 1.9 µM	–	–
O=C1CN(/N=C/c2ccco2)C(=O)N1 [Compound 14]	11%	–	–	9.06 ± 0.45 µM	−1.018	–	–	–	no inhibition
